Reference: patent US20240217970A1, “PHTHALIMIDO CEREBLON COMPLEX BINDERS AND TRANSCRIPTION FACTOR DEGRADERS AND METHODS OF USE” (DANA-FARBER CANCER INSTITUTE, INC., priority 2021, published 2024)

Experiments:
CRBN (NanoLuc-CRBN) = molecular target: T1, CRBN (NanoLuc-CRBN) (Homo sapiens, UniProt Q96SW2); test: Cellular CRBN NanoBRET engagement assay; type: cell-based; conditions: HEK293T cells stably expressing NanoLuc-CRBN; tracer 250 nM; two hours incubation
T1 construct: expressed in transfected cells; host or cells: HEK293T (lentiviral transduction, puromycin selection)
Method: HEK293T cells were transduced with lentivirus and put under puromycin selection (5 μg/mL) for two weeks to produce a cell line stably expressing CRBN with N-terminally fused NanoLuc luciferase (NanoLuc®-CRBN). After antibiotic selection, cells were cultured in DMEM (Gibco, Life Technologies™) supplemented with 10% FBS and 1 μg/mL puromycin to maintain stable NanoLuc®-CRBN expression.
To run the assay, cells were cultured to confluency in 10 cm^2 tissue culture treated plates (Corning®, 430165), washed with PBS and trypsinized at room temperature to detach from the cell culture plate. After 3-4 minutes, the trypsin was quenched with 5× volume DMEM media (Gibco, Life Technologies™) with 10% FBS and cells are collected by centrifugation (1000 rpm, 5 min). The supernatant was removed by vacuum aspiration and the pellet was then resuspended in Opti-MEM™ without phenol red. The density of this cell suspension was determined by diluting the cells 1:1 with trypan blue, then counting using a Countess™ II (Thermo Fischer Scientific) and then diluted to the required volume at 2×10^5 viable cells/mL in Opti-MEM™ I (Gibco, Life Technologies™). CRBN engagement tracer (stock at 10 μM in 31.25% PEG-400, 12.5 mM HEPES, pH 7.5, filtered using a 0.22 μm nitrocellulose membrane; final concentration in cell suspension for assay at 250 nM) was added to the suspension. Cells were then plated in a white/opaque cell culture treated 384-well plate (Corning®, 3570) at volume of 50 μL/well. After plating, the assay plate was centrifuged (500×g, 5 min) and covered in aluminum foil. Compounds for testing were added to the plate using D300e Digital Dispenser (HP) in duplicate 12-pt titrations from a 10 mM stock in DMSO, with DMSO normalized to 1% total volume. The plate was then placed in an incubator at 37° C., 5% CO2 for two hours. After incubation, the plate was removed and set on the bench to come to room temperature (˜10-15 min). The NanoLuc® substrate (500× solution)* and extracellular inhibitor (1500× solution)* were diluted in Opti-MEM™ I (Gibco, Life Technologies™) to prepare a 3× solution. This was then added to each well (25 μL/well). The plate was read on a Pherastar® FSX microplate reader with simultaneous dual emission capabilities to read 384-well plates at 450 and 520 nm. The NanoBRET™ ratio was calculated by dividing the signal at 520 nm by the signal at 450 nm for each sample. Duplicate points were averaged and plotted against [compound, M] to generate an ECso curve.

IKZF2 (Helios) = molecular target: T2, IKZF2 (Helios) (Homo sapiens, UniProt Q96SW2+Q9UKS7); test: HiBiT-IKZF2 degradation assay in MOLT4 cells; type: cell-based; conditions: for inhibition at 10 µM: MOLT-4, 10 μM; for DC50: concentration at which 50% of HiBiT-Helios degradation was achieved, read-out: Cellular Degradation - IKZF2 DC50
T2 construct: endogenous in cells; host or cells: MOLT4 (CRISPR/Cas knock-in of HiBiT at the endogenous IKZF2 locus)
Method: The HiBiT protein tagging system was applied to MOLT4 cells via a CRISPR/Cas-mediated insertion of the HiBiT peptide tag (Promega™) to the N-terminus of the IKZF2 gene locus (Neon™ Transfection System). The resulting HiBiT-Helios stable cell line was treated with inventive compounds 1-10 in triplicates following a 13-point concentration scheme ranging from 10 μM to 0.00026 μM. At the indicated timepoints, the Nano-Glo® HiBiT Lytic Detection system (Promega™) was utilized for detecting bioluminescence of the HiBiT tag in treated cells: the abundance of the tag is proportionate to the level of luminescence. Following normalization to DMSO, dose-response curves were plotted (GraphPad Prism) to determine the concentration points at which 50% of HiBiT-Helios degradation was achieved by each compound. The extent of degradation (range of luminescence) from the highest to lowest concentration points was calculated to determine Dmax.

T1 sequence (Q96SW2 whole entry, species assumed): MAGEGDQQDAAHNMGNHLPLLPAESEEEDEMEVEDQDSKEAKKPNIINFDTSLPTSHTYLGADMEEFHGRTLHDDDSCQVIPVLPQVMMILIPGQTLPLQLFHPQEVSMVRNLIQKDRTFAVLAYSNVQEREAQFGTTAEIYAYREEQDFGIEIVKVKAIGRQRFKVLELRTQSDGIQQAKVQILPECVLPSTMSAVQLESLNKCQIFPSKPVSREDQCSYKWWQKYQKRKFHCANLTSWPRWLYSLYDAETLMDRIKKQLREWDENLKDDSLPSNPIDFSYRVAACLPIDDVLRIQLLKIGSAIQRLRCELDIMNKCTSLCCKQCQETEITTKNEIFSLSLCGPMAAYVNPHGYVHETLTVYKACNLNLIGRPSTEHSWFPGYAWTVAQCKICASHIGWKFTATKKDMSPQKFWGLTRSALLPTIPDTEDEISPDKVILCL
T2 sequence (Q9UKS7 whole entry): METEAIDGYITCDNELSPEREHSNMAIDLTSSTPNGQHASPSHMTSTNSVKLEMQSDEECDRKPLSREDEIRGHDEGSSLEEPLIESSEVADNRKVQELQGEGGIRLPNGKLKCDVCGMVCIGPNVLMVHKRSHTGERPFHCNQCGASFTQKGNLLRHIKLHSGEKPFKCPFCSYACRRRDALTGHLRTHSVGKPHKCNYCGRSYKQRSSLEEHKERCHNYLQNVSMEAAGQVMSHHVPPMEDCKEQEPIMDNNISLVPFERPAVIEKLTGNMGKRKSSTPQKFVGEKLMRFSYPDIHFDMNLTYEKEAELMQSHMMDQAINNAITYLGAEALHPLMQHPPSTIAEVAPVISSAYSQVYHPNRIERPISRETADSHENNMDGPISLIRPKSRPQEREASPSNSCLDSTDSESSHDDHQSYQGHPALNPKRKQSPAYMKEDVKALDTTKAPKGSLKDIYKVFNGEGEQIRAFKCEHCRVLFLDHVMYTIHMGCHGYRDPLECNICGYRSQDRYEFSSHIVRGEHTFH
T2 sequence (Q96SW2 whole entry): as the sequence (Q96SW2 whole entry, species assumed) above
T2 sequence (Q16531 whole entry partner): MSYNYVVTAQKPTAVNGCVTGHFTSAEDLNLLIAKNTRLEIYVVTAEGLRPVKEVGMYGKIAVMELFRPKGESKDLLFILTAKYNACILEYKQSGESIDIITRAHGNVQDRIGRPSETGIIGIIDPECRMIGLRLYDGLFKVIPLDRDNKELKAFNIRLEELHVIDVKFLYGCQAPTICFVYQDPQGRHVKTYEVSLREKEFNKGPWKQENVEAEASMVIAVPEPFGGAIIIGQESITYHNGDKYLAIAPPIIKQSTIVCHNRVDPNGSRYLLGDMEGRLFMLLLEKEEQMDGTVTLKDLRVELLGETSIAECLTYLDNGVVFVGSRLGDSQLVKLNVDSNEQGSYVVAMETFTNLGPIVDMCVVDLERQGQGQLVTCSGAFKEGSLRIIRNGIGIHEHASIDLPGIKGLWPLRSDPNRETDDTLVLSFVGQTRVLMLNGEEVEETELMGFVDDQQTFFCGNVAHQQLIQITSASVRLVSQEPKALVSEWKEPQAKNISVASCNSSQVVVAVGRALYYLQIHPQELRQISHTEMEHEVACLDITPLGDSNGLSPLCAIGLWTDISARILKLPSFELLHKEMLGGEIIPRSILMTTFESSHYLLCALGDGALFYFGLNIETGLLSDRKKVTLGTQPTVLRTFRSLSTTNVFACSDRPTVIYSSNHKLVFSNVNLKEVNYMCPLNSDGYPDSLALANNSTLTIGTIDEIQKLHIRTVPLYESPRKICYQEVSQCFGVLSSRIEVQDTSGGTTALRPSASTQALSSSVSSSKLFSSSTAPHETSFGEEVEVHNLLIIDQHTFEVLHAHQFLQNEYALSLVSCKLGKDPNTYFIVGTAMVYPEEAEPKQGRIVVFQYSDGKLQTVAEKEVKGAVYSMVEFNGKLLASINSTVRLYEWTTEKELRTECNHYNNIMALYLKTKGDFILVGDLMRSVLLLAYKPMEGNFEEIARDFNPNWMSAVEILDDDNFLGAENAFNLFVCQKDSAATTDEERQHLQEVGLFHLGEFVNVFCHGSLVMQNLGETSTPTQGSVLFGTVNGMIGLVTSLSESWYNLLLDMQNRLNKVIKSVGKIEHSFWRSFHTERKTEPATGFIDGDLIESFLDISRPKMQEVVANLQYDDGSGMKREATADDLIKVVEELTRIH

Compound | IC50 (CRBN (NanoLuc-CRBN)) [µM] | inhibition at 10 µM (IKZF2 (Helios)) [%] | DC50 (IKZF2 (Helios)) [µM]
O=C1CCC(N2C(=O)c3ccc(C4(O)CCN(Cc5ccc6cc(-c7ccccc7)nn6c5)CC4)cc3C2=O)C(=O)N1 (stereo not shown) [Compound 1, 2-(2,6-dioxo-3-piperidyl)-5-[4-hydroxy-1-[(2-phenylpyrazolo[1,5-a]pyridin-6-yl)methyl]-4-piperidyl]isoindoline-1,3-dione] | 0.038 | 80 | 0.0049
COc1ccc(Oc2cccc(CN3CCC(O)(c4ccc5c(c4)C(=O)N(C4CCC(=O)NC4=O)C5=O)CC3)c2)cc1 (stereo not shown) [Compound 2] | 0.041 | 80 | 0.0051
O=C1CCC(N2C(=O)c3ccc(C4(O)CCN(Cc5cccc(Oc6ccc(Cl)cc6)c5)CC4)cc3C2=O)C(=O)N1 (stereo not shown) [Compound 3] | 0.054 | 79 | 0.0088
O=C1CCC(N2C(=O)c3ccc(C4(O)CCN(Cc5ccc(F)c(Oc6ccccc6)c5)CC4)cc3C2=O)C(=O)N1 (stereo not shown) [Compound 4] | 0.088 | 73 | 0.023
N#Cc1ccc(Oc2cccc(CN3CCC(O)(c4ccc5c(c4)C(=O)N(C4CCC(=O)NC4=O)C5=O)CC3)c2)cc1 (stereo not shown) [Compound 5] | 0.024 | 77 | 0.0043
O=C1CCC(N2C(=O)c3ccc(C4(O)CCN(Cc5cccc(Oc6ccc(F)cc6)c5)CC4)cc3C2=O)C(=O)N1 (stereo not shown) [Compound 6] | < 0.0026 | 77 | 0.0073
O=C1CCC(N2C(=O)c3ccc(C4(O)CCN(CC5CCOCC5)CC4)cc3C2=O)C(=O)N1 (stereo not shown) [Compound 7] | 0.056 | 55 | 0.055
O=C1CCC(N2C(=O)c3ccc(C4(O)CCN(Cc5cccc(Nc6ccccn6)n5)CC4)cc3C2=O)C(=O)N1 (stereo not shown) [Compound 8] | 0.076 | 71 | 0.024
O=C1CCC(N2C(=O)c3ccc(C4(O)CCN(Cc5cccc6ccccc56)CC4)cc3C2=O)C(=O)N1 (stereo not shown) [Compound 9] | 0.015 | 72 | 0.014
COc1cccc(CN2CCC(O)(c3ccc4c(c3)C(=O)N(C3CCC(=O)NC3=O)C4=O)CC2)c1 (stereo not shown) [Compound 10] | – | 77 | 0.016
O=C1CCC(N2C(=O)c3ccc(C4CCN(Cc5cccc(Nc6ccccn6)n5)CC4)cc3C2=O)C(=O)N1 (stereo not shown) [Compound 11] | 0.24 | 45 | –
O=C1CCC(N2C(=O)c3ccc(C4(O)CCN(Cc5cc(F)cc(F)c5)CC4)cc3C2=O)C(=O)N1 (stereo not shown) [Compound 12] | – | 76 | 0.061
O=C1CCC(N2C(=O)c3ccc(C4(O)CCN(Cc5ccc(OC(F)F)cc5)CC4)cc3C2=O)C(=O)N1 (stereo not shown) [Compound 13] | – | 74 | 0.019
O=C1CCC(N2C(=O)c3ccc(C4(O)CCN(Cc5ccccc5C(F)(F)F)CC4)cc3C2=O)C(=O)N1 (stereo not shown) [Compound 14] | 0.062 | 57 | 0.02
O=C1CCC(N2C(=O)c3ccc(C4(O)CCN(Cc5cccc(Oc6ccccc6)c5)CC4)cc3C2=O)C(=O)N1 (stereo not shown) [Compound 15] | 0.031 | 76 | 0.0042
O=C1CCC(N2C(=O)c3ccc(C4(O)CCN(Cc5ccc(C(F)(F)F)cc5)CC4)cc3C2=O)C(=O)N1 (stereo not shown) [Compound 16] | – | 69 | 0.056
O=C1CCC(N2C(=O)c3ccc(C4(O)CCN(Cc5ccc6ccccc6c5)CC4)cc3C2=O)C(=O)N1 (stereo not shown) [Compound 17, 2-(2,6-dioxo-3-piperidyl)-5-[4-hydroxy-1-(2-naphthylmethyl)-4-piperidyl]isoindoline-1,3-dione] | 0.2 | 80 | 0.013
O=C1CCC(N2C(=O)c3ccc(C4(O)CCN(Cc5ccccc5)CC4)cc3C2=O)C(=O)N1 (stereo not shown) [Compound 18, 5-(1-benzyl-4-hydroxypiperidin-4-yl)-2-(2,6-dioxopiperidin-3-yl)isoindoline-1,3-dione] | 0.065 | 70 | 0.022
O=C1CCC(N2C(=O)c3ccc(C4=CCN(Cc5ccccc5)CC4)cc3C2=O)C(=O)N1 (stereo not shown) [Compound 19, 5-(1-Benzyl-1,2,3,6-tetrahydropyridin-4-yl)-2-(2,6-dioxopiperidin-3-yl)isoindoline-1,3-dione] | 1.7 | 30 | –
O=C1CCC(N2C(=O)c3ccc(C4CCN(Cc5ccccc5)CC4)cc3C2=O)C(=O)N1 (stereo not shown) [Compound 20] | – | 45 | –
